From patent US20210300859A1, “ROSMARINIC ACID DERIVATIVE OR SALT THEREOF” (KAO CORPORATION, priority 2018, published 2021)

Target: T1, human TRPV4 (Homo sapiens, UniProt Q9HBA0)
T1 construct: expressed in transfected cells; host or cells: HeLa cells, transient transfection with a pcDNA 3.1 Directional TOPO vector
Experiment: Evaluation of TRPV4 activity-inhibiting action: intracellular calcium ion influx rate in human TRPV4-expressing HeLa cells stimulated with GSK1016790a (Fluo 4)
Type: cell-based
Details: for Intracellular Ca^2+ influx rate (%): GSK + DMSO defined as 100%, n = 3, Mean ± S.E.; for calcium ion influx into cells by a TRPV4 agonist (result in words): concentration-dependent, 100 and 300 μM, vs GSK1016790a + DMSO, Dunnett's test
Method: HeLa cells were cultured using a DMEM/F12 medium containing 10% fetal bovine serum. The HeLa cells were seeded in a T-75 cell culture flask at 5×10^5 cells/flask. The cells were cultured for 3 days, were then transfected with the human TRPV4 gene expression vector (8 μg) produced in the above (2) using TransIT-HeLaMONSTER Transfection Kit, and were cultured for 1 day.
The cells were detached with Detachin, were seeded in a 96-well optical bottom plate containing a DMEM/F12 medium containing 10% fetal bovine serum at a cell density of 1.5×10^4 cells/90 μL/well, and were further cultured for 1 day.
The intracellular calcium ion influx rate was measured using Calcium Kit II-fluo 4. Loading buffer containing Fluo 4-AM and Hanks' balanced salt solution were mixed at 1:1 and were then added to the human TRPV4-expressing cells produced in the above (3) at 180 μL/well, followed by incubation at 37° C. for 1 hour. Subsequently, the fluorescence intensity (excitation wavelength: 488 nm, fluorescence wavelength: 524 nm) was measured every 2 seconds at 37° C. using a fluorescence plate reader FDSS3000 (Hamamatsu Photonics K.K.). 30 seconds after the start of the measurement, GSK1016790a as a TRPV4 agonist and the 4-O-methyl-rosmarinic acid or 3,4′-di-O-methyl-rosmarinic acid solution prepared in the above Manufacturing Example as a sample were each diluted with Hanks' balanced salt solution, and a mixture solution thereof (mixed immediately before the addition) was added at 20 μL/well. The change in fluorescence intensity was measured every 2 seconds for 300 seconds. GSK1016790a was added to give a final concentration of 3 nM.
In addition, as a positive control for TRPV4 activity inhibition, HC067047, which is a TRPV4 antagonist, was added at a final concentration of 10 μM. 4-O-Methyl-rosmarinic acid, 3,4′-di-O-methyl-rosmarinic acid, GSK1016790a, and HC067047 were all used by dissolving in dimethyl sulfoxide (DMSO).
The TRPV4 activity of a sample was calculated by the following expression, and the intracellular calcium ion influx rate due to the treatment with a TRPV4 agonist, GSK1016790a, was defined as 100%.
Intracellular calcium ion influx rate (%)=[(F max/F0)−(F max C2/F0C2)]/[(F max C1/F0C1)−(F max C2/F0C2)]×100
F max: Maximum fluorescence intensity of the well containing GSK1016790a and a sample in the period from 0 to 300 seconds after the start of the measurement,
F max C1: Maximum fluorescence intensity of the well containing GSK1016790a and a solvent in the period from 0 to 300 seconds after the start of the measurement,
F max C2: Maximum fluorescence intensity of the well containing only a solvent in the period from 0 to 300 seconds after the start of the measurement,
F0: Fluorescence intensity of the well of F max immediately after the start of the measurement,
F0C1: Fluorescence intensity of the well of F max C1 immediately after the start of the measurement, and
F0C2: Fluorescence intensity of the well containing only a solvent immediately after the start of the measurement.
The intracellular calcium ion influx rate (each group, n=3) when a sample was added was compared to that when GSK1016790a and a solvent (DMSO) were added and was examined by a Dunnett's test. […] The results are expressed as the mean value (Mean)±standard error (S.E.).

[1] = sample 100 μM with GSK1016790a 3 nM
[2] = sample 300 μM with GSK1016790a 3 nM

T1 sequence (Q9HBA0 whole entry): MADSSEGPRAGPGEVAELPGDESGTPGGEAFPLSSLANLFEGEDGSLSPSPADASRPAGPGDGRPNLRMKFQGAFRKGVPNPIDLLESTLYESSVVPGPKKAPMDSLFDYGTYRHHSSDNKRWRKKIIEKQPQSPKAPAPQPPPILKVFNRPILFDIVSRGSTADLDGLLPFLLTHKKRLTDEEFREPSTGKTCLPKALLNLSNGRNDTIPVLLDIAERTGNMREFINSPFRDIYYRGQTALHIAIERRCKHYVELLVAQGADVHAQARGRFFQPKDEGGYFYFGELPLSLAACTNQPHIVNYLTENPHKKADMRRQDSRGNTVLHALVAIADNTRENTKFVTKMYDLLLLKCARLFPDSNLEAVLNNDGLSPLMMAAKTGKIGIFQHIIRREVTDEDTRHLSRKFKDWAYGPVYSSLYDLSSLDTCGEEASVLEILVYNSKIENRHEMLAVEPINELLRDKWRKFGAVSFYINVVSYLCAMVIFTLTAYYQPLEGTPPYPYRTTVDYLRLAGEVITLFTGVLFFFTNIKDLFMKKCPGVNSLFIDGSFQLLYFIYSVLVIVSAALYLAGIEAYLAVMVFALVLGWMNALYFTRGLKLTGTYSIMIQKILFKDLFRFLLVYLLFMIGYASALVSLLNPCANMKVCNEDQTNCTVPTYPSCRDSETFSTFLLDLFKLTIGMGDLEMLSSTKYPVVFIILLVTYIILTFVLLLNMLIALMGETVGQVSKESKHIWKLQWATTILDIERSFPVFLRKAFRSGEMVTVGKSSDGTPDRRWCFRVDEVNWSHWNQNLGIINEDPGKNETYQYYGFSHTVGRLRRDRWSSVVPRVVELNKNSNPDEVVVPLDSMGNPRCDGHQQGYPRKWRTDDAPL

| calcium ion influx into cells by a TRPV4 agonist (result in words) | Intracellular Ca^2+ influx rate (%) [1] | Intracellular Ca^2+ influx rate (%) [2] | Compound | Intracellular Ca^2+ influx rate (%) (sample 10 μM with GSK1016790a 3 nM) |
| --- | --- | --- | --- | --- |
|  |  |  | Cc1c(C(=O)Nc2cccc(C(F)(F)F)c2)cc(-c2ccccc2)n1CCCN1CCOCC1 [HC067047, reference compound] | 2.46 ± 0.14 (P < 0.001) % |
| significantly decreased | 78.81 ± 1.73 (P < 0.001) % | 71.25 ± 5.52 (P < 0..001) % | COc1ccc(/C=C/C(=O)OC(Cc2ccc(O)c(OC)c2)C(=O)O)cc1O (stereo not shown) [3,4′-DiMe-RA, (E)-3-(4-hydroxy-3-methoxyphenyl)-2-{[3-(3-hydroxy-4-methoxyphenyl)acryloyl]oxy}propionic acid] |  |
| significantly decreased | 92.65 ± 0.89 (N.S.) % | 82.90 ± 3.04 (P < 0.01) % | COc1ccc(CC(OC(=O)/C=C/c2ccc(O)c(O)c2)C(=O)O)cc1O (stereo not shown) [4-Me-RA, (E)-3-(3-hydroxy-4-methoxyphenyl)-2-{[3-(3,4-dihydroxyphenyl)acryloyl]oxy}propionic acid] |  |
